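Compound exposure: 48 hours, 5 concentrations, 96-well plates. GI50 = concentration required for 50% inhibition of growth. Definition used: TGI = concentration required for complete inhibition of growth.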
How the values were obtained:
Experiment in all cases: NCI-60 cell line screen, 48 h
SW-620 colon = test system: SW-620 colon
RPMI-8226 leukemia = test system: RPMI-8226 leukemia
OVCAR-4 ovarian = test system: OVCAR-4 ovarian
OVCAR-3 ovarian = test system: OVCAR-3 ovarian
LOX IMVI melanoma = test system: LOX IMVI melanoma
OVCAR-5 ovarian = test system: OVCAR-5 ovarian
HCT-15 colon = test system: HCT-15 colon
A498 renal = test system: A498 renal
HCC-2998 colon = test system: HCC-2998 colon
SF-295 CNS = test system: SF-295 CNS
BT-549 breast = test system: BT-549 breast
NCI-H226 lung = test system: NCI-H226 lung
MALME-3M melanoma = test system: MALME-3M melanoma
UACC-62 melanoma = test system: UACC-62 melanoma
786-0 renal = test system: 786-0 renal
UO-31 renal = test system: UO-31 renal
NCI/ADR-RES ovarian = test system: NCI/ADR-RES ovarian
HCT-116 colon = test system: HCT-116 colon
RXF 393 renal = test system: RXF 393 renal
SNB-19 CNS = test system: SNB-19 CNS
KM12 colon = test system: KM12 colon
SK-OV-3 ovarian = test system: SK-OV-3 ovarian
T-47D breast = test system: T-47D breast
NCI-H460 lung = test system: NCI-H460 lung
PC-3 prostate = test system: PC-3 prostate
SF-268 CNS = test system: SF-268 CNS
MOLT-4 leukemia = test system: MOLT-4 leukemia
CCRF-CEM leukemia = test system: CCRF-CEM leukemia
HOP-62 NSCLC = test system: HOP-62 NSCLC
U251 CNS = test system: U251 CNS
ACHN renal = test system: ACHN renal
OVCAR-8 ovarian = test system: OVCAR-8 ovarian
COLO 205 colon = test system: COLO 205 colon
SF-539 CNS = test system: SF-539 CNS
DU-145 prostate = test system: DU-145 prostate
HS 578T breast = test system: HS 578T breast
HT29 colon = test system: HT29 colon
SR leukemia = test system: SR leukemia
UACC-257 melanoma = test system: UACC-257 melanoma
EKVX NSCLC = test system: EKVX NSCLC
SN12C renal = test system: SN12C renal
SNB-75 CNS = test system: SNB-75 CNS
NCI-H522 lung = test system: NCI-H522 lung
K-562 leukemia = test system: K-562 leukemia
NCI-H23 lung = test system: NCI-H23 lung
SK-MEL-28 melanoma = test system: SK-MEL-28 melanoma
TK-10 renal = test system: TK-10 renal
CAKI-1 renal = test system: CAKI-1 renal
MDA-MB-231 breast = test system: MDA-MB-231 breast
SK-MEL-2 melanoma = test system: SK-MEL-2 melanoma
SK-MEL-5 melanoma = test system: SK-MEL-5 melanoma
HL-60(TB) leukemia = test system: HL-60(TB) leukemia
MDA-MB-435 = test system: MDA-MB-435
IGROV1 ovarian = test system: IGROV1 ovarian
MCF7 breast = test system: MCF7 breast
A549 NSCLC = test system: A549 NSCLC

Compound `CCOC(=O)C1=C(C)N2C(=NC3=C(CCC/C3=C\c3ccc(Cl)cc3)C2c2ccc(Cl)cc2)S1` (configuration not stated) has a GI50 (SW-620 colon) of 2.44 µM, a TGI (SW-620 colon) of 6.39 µM and a GI50 (RPMI-8226 leukemia) of 1.22 µM. For the same compound, the TGI (RPMI-8226 leukemia) was 4.04 µM, the GI50 (OVCAR-4 ovarian) was 2.85 µM and the TGI (OVCAR-4 ovarian) was 19.2 µM. The GI50 (OVCAR-3 ovarian) was 2.36 µM, the TGI (OVCAR-3 ovarian) was 5.61 µM and the GI50 (LOX IMVI melanoma) was 1.75 µM. The TGI (LOX IMVI melanoma) was 3.15 µM, the GI50 (OVCAR-5 ovarian) was 20.1 µM and the TGI (OVCAR-5 ovarian) was greater than 100 µM. For the same compound, the GI50 (HCT-15 colon) was 2.15 µM, the TGI (HCT-15 colon) was 4.84 µM and the GI50 (A498 renal) was 1.37 µM. The TGI (A498 renal) was 3.09 µM, the GI50 (HCC-2998 colon) was 1.79 µM and the TGI (HCC-2998 colon) was 3.19 µM. The GI50 (SF-295 CNS) was 2.85 µM, the TGI (SF-295 CNS) was 8.76 µM and the GI50 (BT-549 breast) was 1.53 µM. For the same compound, the TGI (BT-549 breast) was 3.52 µM, the GI50 (NCI-H226 lung) was 3.04 µM and the TGI (NCI-H226 lung) was 8.8 µM. The GI50 (MALME-3M melanoma) was 11.3 µM, the TGI (MALME-3M melanoma) was 35.5 µM and the GI50 (UACC-62 melanoma) was 3.25 µM. The TGI (UACC-62 melanoma) was 16.8 µM, the GI50 (786-0 renal) was 2 µM and the TGI (786-0 renal) was 4.74 µM. The GI50 (UO-31 renal) was 1.7 µM, the TGI (UO-31 renal) was 3.85 µM and the GI50 (NCI/ADR-RES ovarian) was 2.56 µM. The TGI (NCI/ADR-RES ovarian) was 7.04 µM, the GI50 (HCT-116 colon) was 1.4 µM and the TGI (HCT-116 colon) was 2.7 µM. It also gave a GI50 (RXF 393 renal) of 1.88 µM, a TGI (RXF 393 renal) of 3.51 µM and a GI50 (SNB-19 CNS) of 3.35 µM. It also gave a TGI (SNB-19 CNS) greater than 100 µM, a GI50 (KM12 colon) of 1.93 µM and a TGI (KM12 colon) of 3.68 µM. For the same compound, the GI50 (SK-OV-3 ovarian) was 6.68 µM, the TGI (SK-OV-3 ovarian) was greater than 100 µM and the GI50 (T-47D breast) was 3.61 µM. It also gave a TGI (T-47D breast) of 28.3 µM, a GI50 (NCI-H460 lung) of 4.04 µM and a TGI (NCI-H460 lung) of 19.4 µM. It also gave a GI50 (PC-3 prostate) of 2.77 µM, a TGI (PC-3 prostate) greater than 100 µM and a GI50 (SF-268 CNS) of 3.24 µM. It also gave a TGI (SF-268 CNS) of 30.4 µM, a GI50 (MOLT-4 leukemia) of 3.06 µM and a TGI (MOLT-4 leukemia) of 9.27 µM. The GI50 (CCRF-CEM leukemia) was 2.59 µM, the TGI (CCRF-CEM leukemia) was 7.87 µM and the GI50 (HOP-62 NSCLC) was 2.55 µM. It also gave a TGI (HOP-62 NSCLC) of 5.38 µM, a GI50 (U251 CNS) of 1.86 µM and a TGI (U251 CNS) of 4.06 µM. For the same compound, the GI50 (ACHN renal) was 3.64 µM, the TGI (ACHN renal) was 33.6 µM and the GI50 (OVCAR-8 ovarian) was 3.24 µM. For the same compound, the TGI (OVCAR-8 ovarian) was 31 µM, the GI50 (COLO 205 colon) was 2.44 µM and the TGI (COLO 205 colon) was 4.65 µM. For the same compound, the GI50 (SF-539 CNS) was 3.88 µM, the TGI (SF-539 CNS) was greater than 100 µM and the GI50 (DU-145 prostate) was 3.92 µM. For the same compound, the TGI (DU-145 prostate) was 17.6 µM, the GI50 (HS 578T breast) was 5.33 µM and the TGI (HS 578T breast) was greater than 100 µM. It also gave a GI50 (HT29 colon) of 2.35 µM, a TGI (HT29 colon) of 5.92 µM and a GI50 (SR leukemia) of 1.65 µM. For the same compound, the TGI (SR leukemia) was 3.95 µM, the GI50 (UACC-257 melanoma) was 2.05 µM and the TGI (UACC-257 melanoma) was 5.18 µM. The GI50 (EKVX NSCLC) was 3.37 µM, the TGI (EKVX NSCLC) was 46.8 µM and the GI50 (SN12C renal) was 3.55 µM. For the same compound, the TGI (SN12C renal) was 21.6 µM, the GI50 (SNB-75 CNS) was 9.11 µM and the TGI (SNB-75 CNS) was 51.3 µM. For the same compound, the GI50 (NCI-H522 lung) was 3.84 µM, the TGI (NCI-H522 lung) was 17.8 µM and the GI50 (K-562 leukemia) was 3.45 µM. For the same compound, the TGI (K-562 leukemia) was 11.8 µM, the GI50 (NCI-H23 lung) was 2.03 µM and the TGI (NCI-H23 lung) was 5.26 µM. It also gave a GI50 (SK-MEL-28 melanoma) of 3.07 µM, a TGI (SK-MEL-28 melanoma) of 11.4 µM and a GI50 (TK-10 renal) of 5.23 µM. It also gave a TGI (TK-10 renal) of 65.9 µM, a GI50 (CAKI-1 renal) of 5.08 µM and a TGI (CAKI-1 renal) greater than 100 µM. The GI50 (MDA-MB-231 breast) was 3.06 µM, the TGI (MDA-MB-231 breast) was 16.6 µM and the GI50 (SK-MEL-2 melanoma) was 19 µM. It also gave a TGI (SK-MEL-2 melanoma) of 62.1 µM, a GI50 (SK-MEL-5 melanoma) of 2.93 µM and a TGI (SK-MEL-5 melanoma) of 11.4 µM. For the same compound, the GI50 (HL-60(TB) leukemia) was 3.09 µM, the TGI (HL-60(TB) leukemia) was 9.24 µM and the GI50 (MDA-MB-435) was 2.93 µM. It also gave a TGI (MDA-MB-435) of 14.2 µM, a GI50 (IGROV1 ovarian) of 3.11 µM and a TGI (IGROV1 ovarian) of 10.1 µM. For the same compound, the GI50 (MCF7 breast) was 2.44 µM, the TGI (MCF7 breast) was 11 µM and the GI50 (A549 NSCLC) was 2.08 µM. For the same compound, the TGI (A549 NSCLC) was 5.13 µM.
